Common to all, as to assay type: in vivo, human
The test system of assay [1] is OVCAR-5 (EPCAM+) cancer cells. In words: BiTE therapy of engrafted tumor in zebrafish. Particulars: rag2null/null; Il2rga-/- zebrafish, co-administered with CD8+ T cells after 7 days of engraftment. The source says:
(§1) To investigate if the rag2^null/null; Il2rga−/− animals can be used in the context of evaluating BiTE therapy efficiency, GFP-expressing OVCAR-5 (EPCAM+) cancer cells were first engrafted into mutant zebrafish. Following 7 days of engraftment, CD8+ T cells were co-administered with a control EPCAM antibody, a non-specific CD19 targeting BiTE (blinatumomab), or an EPCAM targeting BiTE (solitomab). […] In a similar experiment, animals engrafted with CD19-expressing leukemia cell line (K562-CD19) cells were killed off by coadministration of CD8+ T cells and blinatumomab (FIG. 4A-FIG. 4F).
(§2) Human cancer cells were grown to 90% confluence in a T75 cell culture flask, trypsinized, counted and resuspended at 2.5×10^7 cells/ml in Matrigel. Clondronate liposomes were added to the injection mix to inhibit early macrophage ingestion of engrafted cells over the first 7 days. […] Human CD8+ T cells, CMV-primed T cells and Car T cells were grown in 24 well plate at a density of 1×10^6 cells/ml, harvested, counted and resuspended at 5×10^7 cells/ml in T cell media. […] Cancer cell engraftment was assessed using epifluorescence whole animal microscopy (Olympus MVX10), with average GFP intensity measured using ImageJ. Growth was measured in relation to GFP intensity observed immediately after IP injection or by individual count of GFP+ cells over time. […]

Assay [2] deals with CD19-expressing leukemia cell line (K562-CD19). Kind of assay: BiTE therapy of engrafted leukemia cells in zebrafish. Particulars: rag2null/null; Il2rga-/- zebrafish, coadministration of CD8+ T cells.
Excerpt: as §1, §2

Assay [3] relates to OVCAR-5 (zipCaspase3) cells. In words: Live confocal imaging of BiTE-induced apoptosis with zipCaspase 3 reporter in zebrafish. Particulars: administered with T cells, live confocal microscopy. The procedure: Next, it was investigated whether the rag2^null/null; Il2rga−/− zebrafish are able to be used to directly visualize tumor cell killing at single cell resolution following BiTE therapy in vivo. To do so, OVCAR-5 ovarian cancer cells were engineered to express a zipCaspase 3 construct, where live tumor cells constitutively express mCherry, but express zipGFP only when undergoing apoptosis (FIG. 7A-FIG. 7E).
Imaging of peri-ocular transplanted cells was performed using an inverted LSM 710 confocal microscope. Engrafted zebrafish were anesthetized using […] tricaine and placed into a 12-mm glass-bottom dish for imaging. Serial z-stack imaging was carried out using a 10× objective (NA 0.45). In vivo direct visualization of Car T-cell interaction with tumor cells, cell apoptosis with zipGFP caspase 3 reporter, and visualization of therapy target specificity was carried out by serial z-stack imaging using 405 nm (emission […]), 488 nm (emission=493-586 nm) and 546 nm laser (emission=575-703 nm). Animals were imaged at 6 dpt prior to administration of immunotherapy. […] Quantification of distance between tumor cells and Car T-cells was analysed using distance between surface and spot plugin. Images were manually annotated from Imaris files (n=100 cells per timepoint analyzed from n≥3 animals) and quantified using the Fisher's Exact Test or T-test.

For blinatumomab, the overall tumor growth result in assay [1] is listed as “did not alter overall OVCAR-5 tumor growth”. For the same substance, in assay [2], the “killing of engrafted cells” value is “killed off”.
For solitomab, the overall tumor growth entry in assay [1] was “undergo cell killing and suppress tumor growth”. In assay [3], the “cell apoptosis quantified in vivo (zipGFP)” value was “significant induction of cell apoptosis”.

These data come from patent US20220256821A1, “ZEBRAFISH DELETION AND COMPOUND MUTANTS AND USES THEREOF” (The General Hospital Corporation, priority 2019, published 2022).
